Drawing on patent US11787796B2, “Plasma Kallikrein inhibitors and uses thereof” (Takeda Pharmaceutical Company Limited, priority 2019, dated 2023), this text covers EC50 for 26 compounds.

One may read the pEC50 as the EC50 on a negative log10 scale, so that one unit is a factor of ten.

pEC50: −log10 of the molar value. Read-outs that look alike come from different tables or passages of the source. Bounds are passed on as bounds.

This experiment has as its target human activated kallikrein enzyme (Homo sapiens (Human), UniProt P03952). The experiment is described as follows: Plasma kallikrein inhibition assay with fluorogenic peptide substrate, 500 pM activated kallikrein format. In kind it is biochemical. The following applies: read-out: Primary Dose Response Assay: Average EC50. How it is done: Example compounds were evaluated for inhibition of the human activated kallikrein enzyme in two formats of an assay employing a fluorogenic peptide substrate. In one assay format, the concentrations of reagents were as follows: 20 mM Tris pH 7.5, 1 mM EDTA, 150 mM sodium chloride, 0.1% PEG-400, 0.1% Triton X-100, […], 300 uM Pro-Phe-Arg-7-amido-4-methylcoumarin substrate. Prior to reaction initiation with substrate, enzyme and inhibitors were preincubated for 30 min at RT. After initiation with substrate, reactions were incubated for 10 min at RT and fluorescence emission at 460 nm from 380 nm excitation measured with a microplate reader. In another assay format, the concentrations of reagents were as follows: 20 mM Tris pH 7.5, 1 mM EDTA, 150 mM sodium chloride, 0.1% PEG-400, 0.1% Triton X-100, 5 pM activated kallikrein enzyme, 300 uM Pro-Phe-Arg-7-amido-4-methylcoumarin substrate. Prior to reaction initiation with substrate, enzyme and inhibitors were preincubated for 30 min at RT. After initiation with substrate, reactions were incubated for 18 h at RT and fluorescence emission at 460 nm from 380 nm excitation measured with a microplate reader.
Table II provides the results of the assay in the format with 500 pM activated kallikrein assay.
Table III provides comparative plasma kallikrein inhibition potency in the assay format with 500 pM activated kallikrein assay (described in detail in the preceding example).

[1] abbreviates: 500 pM activated kallikrein, 300 uM Pro-Phe-Arg-7-amido-4-methylcoumarin substrate, 30 min preincubation, 10 min reaction at RT.

human activated kallikrein enzyme, sequence (P03952 391-638): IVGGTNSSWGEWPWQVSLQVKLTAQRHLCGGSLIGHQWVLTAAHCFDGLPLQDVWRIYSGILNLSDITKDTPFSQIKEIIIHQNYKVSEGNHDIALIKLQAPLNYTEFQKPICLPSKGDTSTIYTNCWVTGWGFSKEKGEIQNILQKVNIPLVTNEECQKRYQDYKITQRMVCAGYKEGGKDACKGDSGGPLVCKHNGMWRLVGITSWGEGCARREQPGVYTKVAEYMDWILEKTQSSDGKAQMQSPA
human activated kallikrein enzyme, sequence (P03952 20-390 partner): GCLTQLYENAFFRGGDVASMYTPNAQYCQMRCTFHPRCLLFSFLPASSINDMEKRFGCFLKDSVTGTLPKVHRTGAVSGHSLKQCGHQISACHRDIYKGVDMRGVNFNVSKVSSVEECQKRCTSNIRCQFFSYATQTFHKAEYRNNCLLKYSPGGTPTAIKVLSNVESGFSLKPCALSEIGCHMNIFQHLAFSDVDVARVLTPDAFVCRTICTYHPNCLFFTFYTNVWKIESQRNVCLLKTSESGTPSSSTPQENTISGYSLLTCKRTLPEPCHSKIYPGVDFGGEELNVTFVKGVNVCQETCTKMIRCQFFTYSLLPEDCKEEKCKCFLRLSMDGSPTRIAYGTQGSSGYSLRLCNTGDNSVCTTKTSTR

On to `COc1ccc(-n2ccc(C(F)(F)F)n2)c(CNC(=O)c2cn(Cc3cn4cc(C5CC5)ccc4n3)nn2)c1F` [Example I-62, 1-((6-cyclopropylimidazo[1,2-a]pyridin-2-yl)methyl)-N-(2-fluoro-3-methoxy-6-(3-(trifluoromethyl)-1H-pyrazol-1-yl)benzyl)-1H-1,2,3-triazole-4-carboxamide], for which the negative-log EC50 (pEC50) under setting [1] is 8.00 to 9.00.
On the same count and under the same terms, with `O=C(NCc1cc(Cl)ccc1-n1cnnn1)c1cnn(Cc2cn3cc(C4CC4)ccc3n2)c1` [Example I-125, N-(5-chloro-2-(1H-tetrazol-1-yl)benzyl)-1-((6-cyclopropylimidazo[1,2-a]pyridin-2-yl)methyl)-1H-pyrazole-4-carboxamide] the figure was 8.00 to 9.00; with `O=C(NCc1c(-n2cnnn2)ccc(Cl)c1F)c1cn(Cc2cn3cc(C4CC4)ccc3n2)nn1` [Example I-106, N-(3-chloro-2-fluoro-6-(1H-tetrazol-1-yl)benzyl)-1-((6-cyclopropylimidazo[1,2-a]pyridin-2-yl)methyl)-1H-1,2,3-triazole-4-carboxamide], not below 9.00; with `O=C(NCc1ccc2nccn2c1)c1cn(Cc2cn3cc(C4CC4)ccc3n2)nn1` [Example I-136, 1-((6-cyclopropylimidazo[1,2-a]pyridin-2-yl)methyl)-N-(imidazo[1,2-a]pyridin-6-ylmethyl)-1H-1,2,3-triazole-4-carboxamide], 5.70 to 7.00.
Still for that read-out and setting: as for `O=C(NCc1c(-n2cnnn2)ccc(Cl)c1F)c1cnn(Cc2cn3cc(C4CC4)ccc3n2)c1` [Example I-116, N-(3-chloro-2-fluoro-6-(1H-tetrazol-1-yl)benzyl)-1-((6-cyclopropylimidazo[1,2-a]pyridin-2-yl)methyl)-1H-pyrazole-4-carboxamide], the figure is not below 9.00; as for `Cc1cc(CN)cc(C)c1CNS(=O)(=O)c1cnn(Cc2cn3cc(C4CC4)ccc3n2)c1` [Example I-41, N-(4-(aminomethyl)-2,6-dimethylbenzyl)-1-((6-cyclopropylimidazo[1,2-a]pyridin-2-yl)methyl)-1H-pyrazole-4-sulfonamide], 5.15 to 5.70; as for `O=C(NCc1nccc2ccc(Cl)cc12)c1cnn(Cc2cn3cc(C4CC4)ccc3n2)c1` [Example I-131, N-((7-chloroisoquinolin-1-yl)methyl)-1-((6-cyclopropylimidazo[1,2-a]pyridin-2-yl)methyl)-1H-pyrazole-4-carboxamide], 5.70 to 7.00.
For `COc1ccnc(CNC(=O)c2cn(Cc3cn4cc(C5CC5)cc(CCN(C)C)c4n3)nn2)c1F` [Example I-138, 1-((6-cyclopropyl-8-(2-(dimethylamino)ethyl)imidazo[1,2-a]pyridin-2-yl)methyl)-N-((3-fluoro-4-methoxypyridin-2-yl)methyl)-1H-1,2,3-triazole-4-carboxamide], the pEC50 under setting [1] is 8.00 to 9.00.
The same measure, in the same setting: with `COc1ccc(-n2cnnn2)c(CNC(=O)c2cc3n(n2)CCC3c2cn3cc(C4CC4)ccc3n2)c1F` (centres unmarked) [Example I-2, 4-(6-cyclopropylimidazo[1,2-a]pyridin-2-yl)-N-(2-fluoro-3-methoxy-6-(1H-tetrazol-1-yl)benzyl)-5,6-dihydro-41-pyrrolo[1,2-b]pyrazole-2-carboxamide] the figure was 8.00 to 9.00.
Same read-out and setting: as for `COc1ccnc(CNC(=O)c2cn(Cc3cn4cc(C5CC5)cc(N5CCN(C)CC5)c4n3)nn2)c1F` [Example I-139, 1-((6-cyclopropyl-8-(4-methylpiperazin-1-yl)imidazo[1,2-a]pyridin-2-yl)methyl)-N-((3-fluoro-4-methoxypyridin-2-yl)methyl)-1H-1,2,3-triazole-4-carboxamide], the figure is not below 9.00; as for `COc1cccc(CNC(=O)c2cn(Cc3cn4cc(C5CC5)ccc4n3)nn2)c1F` [Example I-100, 1-((6-cyclopropylimidazo[1,2-a]pyridin-2-yl)methyl)-N-(2-fluoro-3-methoxybenzyl)-1H-1,2,3-triazole-4-carboxamide], 5.70 to 7.00.
As for `O=C(NCc1ncn2ccc(Cl)c(F)c12)c1cn(Cc2ccc3nccnc3c2)nn1`, where the note is “comparative compounds (Table III), 500 pM activated kallikrein format”, the pEC50 is 7.00 to 8.00.
Regarding `COc1ccc(Br)c(CNC(=O)c2cn(Cc3cn4cc(C5CC5)ccc4n3)nn2)c1F` [Example I-102, N-(6-bromo-2-fluoro-3-methoxybenzyl)-1-((6-cyclopropylimidazo[1,2-a]pyridin-2-yl)methyl)-1H-1,2,3-triazole-4-carboxamide], the pEC50 under setting [1] is 7.00 to 8.00.
Same read-out and setting: as for `COc1ccc(-c2ccnnc2)c(CNC(=O)c2cn(Cc3cn4cc(C5CC5)ccc4n3)nn2)c1F` [Example I-86, 1-((6-cyclopropylimidazo[1,2-a]pyridin-2-yl)methyl)-N-(2-fluoro-3-methoxy-6-(pyridazin-4-yl)benzyl)-1H-1,2,3-triazole-4-carboxamide], the figure is 8.00 to 9.00.
For `O=C(NCc1cc2c(cn1)NCC2)c1cn(Cc2cn3cc(C4CC4)ccc3n2)nn1` [Example I-148, 1-((6-cyclopropylimidazo[1,2-a]pyridin-2-yl)methyl)-N-((2,3-dihydro-1H-pyrrolo[2,3-c]pyridin-5-yl)methyl)-1H-1,2,3-triazole-4-carboxamide], the pEC50 under setting [1] was 5.70 to 7.00.
`COc1ccc(-n2cnnn2)c(CNC(=O)c2cn(Cc3cn4cc(C5CC5)ccc4n3)nn2)c1F` [Example I-105, 1-((6-cyclopropylimidazo[1,2-a]pyridin-2-yl)methyl)-N-(2-fluoro-3-methoxy-6-(1H-tetrazol-1-yl)benzyl)-1H-1,2,3-triazole-4-carboxamide]: the pEC50 under setting [1] was not below 9.00.
In the case of `Cc1cc(C(=N)N)cc(C)c1CNS(=O)(=O)c1cnn(Cc2cn3cc(C4CC4)ccc3n2)c1` [Example I-39, 4-(((1-((6-cyclopropylimidazo[1,2-a]pyridin-2-yl)methyl)-1H-pyrazole)-4-sulfonamido)methyl)-3,5-dimethylbenzimidamide], the pEC50 under setting [1] was 7.00 to 8.00.
The same measure, in the same setting: as for `N#Cc1ccc(CNS(=O)(=O)c2cnn(Cc3cn4cc(C5CC5)ccc4n3)c2)cc1` [Example I-34, N-(4-cyanobenzyl)-1-((6-cyclopropylimidazo[1,2-a]pyridin-2-yl)methyl)-1H-pyrazole-4-sulfonamide], the figure is less than 5.15; as for `COc1ccc(-c2ccncc2)c(CNC(=O)c2cn(Cc3cn4cc(C5CC5)ccc4n3)nn2)c1F` [Example I-101, 1-((6-cyclopropylimidazo[1,2-a]pyridin-2-yl)methyl)-N-(2-fluoro-3-methoxy-6-(pyridin-4-yl)benzyl)-1H-1,2,3-triazole-4-carboxamide], 8.00 to 9.00; as for `O=C(NCc1nccc(OC(F)F)c1F)c1cn(Cc2cn3cc(C4CC4)cc(N4CCN(CC(F)(F)F)CC4)c3n2)nn1` [Example I-152, 1-((6-cyclopropyl-8-(4-(2,2,2-trifluoroethyl)piperazin-1-yl)imidazo[1,2-a]pyridin-2-yl)methyl)-N-((4-(difluoromethoxy)-3-fluoropyridin-2-yl)methyl)-1H-1,2,3-triazole-4-carboxamide], 5.70 to 7.00.
Regarding `COc1ccc(-n2cnnn2)c(CNC(=O)c2nnc(Cc3cn4cc(C5CC5)ccc4n3)o2)c1F` [Example I-94, 5-((6-cyclopropylimidazo[1,2-a]pyridin-2-yl)methyl)-N-(2-fluoro-3-methoxy-6-(1H-tetrazol-1-yl)benzyl)-1,3,4-oxadiazole-2-carboxamide], under setting [1], the pEC50 is not below 9.00.
Same read-out and setting: with `COC(=O)c1ncc(-c2ccc(OC)c(F)c2CNC(=O)c2cn(Cc3cn4cc(C5CC5)ccc4n3)nn2)cn1` [Example I-75, Methyl 5-(2-((1-((6-cyclopropylimidazo[1,2-a]pyridin-2-yl)methyl)-1H-1,2,3-triazole-4-carboxamido)methyl)-3-fluoro-4-methoxyphenyl)pyrimidine-2-carboxylate] the figure was 8.00 to 9.00; with `COc1ccc(-n2cnnn2)c(CNC(=O)c2cn(Cc3cn4cc(C5CC5)cc(F)c4n3)nn2)c1F` [Example I-99, 1-((6-cyclopropyl-8-fluoroimidazo[1,2-a]pyridin-2-yl)methyl)-N-(2-fluoro-3-methoxy-6-(1H-tetrazol-1-yl)benzyl)-1H-1,2,3-triazole-4-carboxamide], not below 9.00; with `COc1ccc(-n2cccn2)c(CNC(=O)c2cn(Cc3cn4cc(C5CC5)ccc4n3)nn2)c1F` [Example I-95, 1-((6-cyclopropylimidazo[1,2-a]pyridin-2-yl)methyl)-N-(2-fluoro-3-methoxy-6-(1H-pyrazol-1-yl)benzyl)-1H-1,2,3-triazole-4-carboxamide], 8.00 to 9.00.
Still for that read-out and setting: with `CCOC(=O)CCc1cc(C2CC2)cn2cc(Cn3cc(C(=O)NCc4c(C#N)ccc(OC)c4F)nn3)nc12` [Example I-108, ethyl 3-(2-((4-((6-cyano-2-fluoro-3-methoxybenzyl)carbamoyl)-1H-1,2,3-triazol-1-yl)methyl)-6-cyclopropylimidazo[1,2-a]pyridin-8-yl)propanoate] the figure was 8.00 to 9.00; with `Cc1c(Cl)ccc(-n2cnnn2)c1CNC(=O)c1cn(Cc2cn3cc(C4CC4)ccc3n2)nn1` [Example I-80, N-(3-chloro-2-methyl-6-(1H-tetrazol-1-yl)benzyl)-1-((6-cyclopropylimidazo[1,2-a]pyridin-2-yl)methyl)-1H-1,2,3-triazole-4-carboxamide], 5.70 to 7.00.
